# Molecular target: CREB-binding protein (Homo sapiens, UniProt Q92793)
# Experiment: In Vitro Enzyme Inhibition Assay-CREBBP Inhibition: Determination of the IC50 for the CREBBP inhibitors disclosed herein was performed as follows: CREBBP was cloned and expressed in E. Coli as His-tag protein and purified by Nickel affinity and gel-filtration chromatography. The protein was further characterized as a single band with the correct molecular weight by SDS-PAGE. CREBBP binding and inhibition was assessed by monitoring the interaction of biotinylated H4-tetraacetyl peptide (AnaSpec, H4K5/8/12/16(Ac), biotin-labeled) with the target using the AlphaScreen technology (Perkin Elmer). In a 384-well ProxiPlate CREBBP (50 nM final) was combined with peptide (20 nM final) in 50 mM HEPES (pH 7.3), 10 mM NaCl, 0.25 mM TCEP, 0.1% (w/v) BSA, and 0.005% (w/v) Brij-35 either in the presence of DMSO (final 0.4% DMSO) or compound dilution series in DMSO. After 20-minute incubation at room temperature, Alpha streptavidin donor beads and Nickel Chelate acceptor beads were added to a final concentration of 5 μg/mL. After two hours of equilibration, plates were read on an Envision instrument and the IC50 was calculated using a four parameter non-linear curve fit.The ability of the compounds disclosed herein to inhibit CBP activity was quantified and the respective IC50 value was determined.
# CREB-binding protein, sequence (Q92793 whole entry): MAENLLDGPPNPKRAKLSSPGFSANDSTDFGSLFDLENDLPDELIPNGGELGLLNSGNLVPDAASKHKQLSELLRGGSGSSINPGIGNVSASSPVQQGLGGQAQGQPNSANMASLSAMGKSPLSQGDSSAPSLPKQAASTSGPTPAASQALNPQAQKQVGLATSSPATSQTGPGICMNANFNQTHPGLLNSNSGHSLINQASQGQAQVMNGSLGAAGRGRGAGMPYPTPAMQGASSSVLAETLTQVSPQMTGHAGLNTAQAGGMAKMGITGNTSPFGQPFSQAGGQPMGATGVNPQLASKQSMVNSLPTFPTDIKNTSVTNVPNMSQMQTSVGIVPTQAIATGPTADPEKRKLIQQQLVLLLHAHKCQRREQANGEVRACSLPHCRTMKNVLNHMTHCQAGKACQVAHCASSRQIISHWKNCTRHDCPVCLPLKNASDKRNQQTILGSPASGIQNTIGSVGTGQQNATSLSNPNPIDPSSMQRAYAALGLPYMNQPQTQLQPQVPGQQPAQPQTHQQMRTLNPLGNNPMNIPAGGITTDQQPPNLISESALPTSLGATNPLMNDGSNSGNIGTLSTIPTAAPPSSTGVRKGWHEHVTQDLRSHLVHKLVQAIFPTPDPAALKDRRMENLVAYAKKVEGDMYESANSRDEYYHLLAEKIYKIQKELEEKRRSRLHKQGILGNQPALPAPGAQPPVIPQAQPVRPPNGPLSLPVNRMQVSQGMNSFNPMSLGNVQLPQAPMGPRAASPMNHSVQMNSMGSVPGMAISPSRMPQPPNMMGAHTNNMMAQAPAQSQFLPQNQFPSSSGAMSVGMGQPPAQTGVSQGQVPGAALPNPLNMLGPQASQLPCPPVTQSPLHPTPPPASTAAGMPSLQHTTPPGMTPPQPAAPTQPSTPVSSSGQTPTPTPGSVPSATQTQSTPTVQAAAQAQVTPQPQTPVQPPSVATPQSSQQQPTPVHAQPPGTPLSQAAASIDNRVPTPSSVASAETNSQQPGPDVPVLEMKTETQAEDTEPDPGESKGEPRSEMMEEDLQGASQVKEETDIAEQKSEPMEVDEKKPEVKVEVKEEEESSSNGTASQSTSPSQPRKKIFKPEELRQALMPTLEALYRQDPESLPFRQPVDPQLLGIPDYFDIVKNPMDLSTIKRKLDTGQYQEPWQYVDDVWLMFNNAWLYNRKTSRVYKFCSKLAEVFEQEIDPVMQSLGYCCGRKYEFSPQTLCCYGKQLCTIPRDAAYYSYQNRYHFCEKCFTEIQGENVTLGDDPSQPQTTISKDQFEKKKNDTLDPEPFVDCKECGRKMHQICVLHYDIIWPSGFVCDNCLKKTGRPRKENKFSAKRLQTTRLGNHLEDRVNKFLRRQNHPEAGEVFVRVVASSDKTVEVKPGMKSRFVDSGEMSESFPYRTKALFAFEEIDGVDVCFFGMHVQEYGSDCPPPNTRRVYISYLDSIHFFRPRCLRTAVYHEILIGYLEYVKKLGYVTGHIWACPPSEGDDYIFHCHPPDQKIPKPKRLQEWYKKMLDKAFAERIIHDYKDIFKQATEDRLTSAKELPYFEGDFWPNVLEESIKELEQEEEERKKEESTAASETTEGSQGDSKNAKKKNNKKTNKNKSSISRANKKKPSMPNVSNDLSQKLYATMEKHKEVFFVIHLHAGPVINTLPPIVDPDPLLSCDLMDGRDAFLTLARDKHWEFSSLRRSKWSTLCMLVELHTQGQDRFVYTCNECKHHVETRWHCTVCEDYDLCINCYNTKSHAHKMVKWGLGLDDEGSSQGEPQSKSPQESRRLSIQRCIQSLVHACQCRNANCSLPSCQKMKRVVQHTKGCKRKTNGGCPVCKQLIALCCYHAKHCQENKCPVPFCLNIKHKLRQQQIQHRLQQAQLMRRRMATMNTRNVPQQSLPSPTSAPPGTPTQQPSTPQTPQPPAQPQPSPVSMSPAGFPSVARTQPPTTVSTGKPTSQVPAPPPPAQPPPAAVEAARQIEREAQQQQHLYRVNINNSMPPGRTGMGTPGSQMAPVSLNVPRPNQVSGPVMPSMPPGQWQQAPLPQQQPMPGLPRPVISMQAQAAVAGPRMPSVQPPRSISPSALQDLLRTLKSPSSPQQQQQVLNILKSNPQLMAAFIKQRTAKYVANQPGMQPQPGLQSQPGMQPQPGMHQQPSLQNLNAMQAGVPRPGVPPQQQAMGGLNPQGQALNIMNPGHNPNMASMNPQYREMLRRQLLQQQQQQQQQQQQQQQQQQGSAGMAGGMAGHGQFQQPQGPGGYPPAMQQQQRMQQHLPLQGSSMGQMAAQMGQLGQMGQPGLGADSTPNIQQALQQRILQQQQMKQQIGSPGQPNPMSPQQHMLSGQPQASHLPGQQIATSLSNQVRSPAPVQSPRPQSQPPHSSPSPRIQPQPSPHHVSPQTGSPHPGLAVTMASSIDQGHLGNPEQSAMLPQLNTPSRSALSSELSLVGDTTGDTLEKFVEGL
row,Compound,IC50 [nM]
1,Cc1cccc(Cl)c1Oc1nc(NS(=O)(=O)C(C)C)cc(-c2cc(Cl)c(=O)n(C)c2)n1,< 500
2,CCNc1cc(-c2cc(C)c(=O)n(C)c2)nc(Oc2ccc(F)cc2F)n1,< 500
3,Cc1cccc(F)c1Oc1nc(NS(=O)(=O)CC2CC2)cc(-c2ccc(=O)n(C)c2)n1,< 500
4,Cc1cccc(F)c1Oc1nc(NS(=O)(=O)CCC(F)(F)F)cc(-c2ccc(=O)n(C)c2)n1,< 500
5,CCCCS(=O)(=O)Nc1cc(-c2cc(Cl)c(=O)n(C)c2)nc(Oc2c(C)cccc2Cl)n1,< 500
6,CCCCS(=O)(=O)Nc1nc(Oc2c(C)cccc2C)nc(-c2cc(C)c(=O)n(C)c2)n1,< 500
7,Cc1cccc(F)c1Oc1nc(NS(=O)(=O)CCC2CC2)cc(-c2ccc(=O)n(C)c2)n1,< 500

# Reference: ChEMBL document CHEMBL5726465, “Therapeutic compounds” (2019)
